# Laboratory results taken from patent publication US12398110B2, “Second generation inhibitors of mitochondrial permeability transition pore with improved plasma stability” (Oregon Health & Science University, priority 2019, dated 2025).
# Experiments:
# mtPTP [1] = test: Ca2+ retention capacity (CRC) of isolated mouse liver mitochondria; type: biochemical
# Procedure: CRC determines the Ca^2+ threshold required for mtPTP activation; inhibitors of mtPTP are expected to increase the Ca^2+ threshold required for mtPTP induction. Extramitochondrial Ca^2+ changes are detected using the membrane-impermeant Ca^2+ indicator, Calcium Green-5N.
# Isolation of mitochondria. C57BL6/N mouse liver mitochondria were prepared from 2 to 6 month old male mice by standard differential centrifugation. Mice fed ad libitum were euthanized with CO2 followed cervical dislocation, their livers were existed and placed in a glass beaker containing ice-cold isolation buffer (IB: 0.25 m sucrose, 10 mm Tris-HCl, 0.1 mm EGTA-Tris, pH 7.4) supplemented with fatty acid free bovine serum albumin. Livers were then cut into small pieces with scissors, rinsed with ice-cold IB, and passed through a pre-chilled Potter homogenizer with Teflon pestle. The homogenate (˜30 mL per liver) was transferred to centrifuge tubes, and unbroken cells and nuclei were removed by centrifugation at 700 g for 10 min at 4° C. The supernatant containing mitochondria and other organelles was transferred to new tubes and centrifuged at 6000 g for 10 min at 4° C. The resulting supernatant was discarded and mitochondrial pellet was carefully suspended in ice-cold IB and spun at 9500 g for 5 min at 4° C. The pellet was suspended in IB to give a protein concentration of ˜60-80 mg/mL and stored on ice. Experiments were started immediately and completed within 5 h. Protein concentration was determined by the Biuret method.
# Assessment of Ca^2+ retention capacity (CRC). CRC of isolated mouse liver mitochondria was assessed as follows: First, 0.1 mL of SAB were dispensed to a 96-well black assay plate in the presence of 2% DMSO (control wells) or varying concentrations of test compounds, in 1:2 serial dilutions. Then, 0.1 mL of 0.5 mg/mL mitochondria in SAB devoid of respiratory substrates, but supplemented with 1 μm Calcium Green-5N were added to all wells of the assay plate. A train of 10 μm CaCl2 pulses was added at 2 min intervals, and fluorescence intensity (ex/em 485/535 nm) was read on Tecan Infinite F200 plate reader.
# mtPTP [2] = test: Chemical activator (PhAsO, Diamide, Cu(OP)2, NEM) induced mitochondrial swelling; type: biochemical, mouse; details: 1.5 μm compound, 10 μm Ca2+ plus PhAsO, Cu(OP)2 or NEM
# Procedure: […] graphs compound TR001 prevention of chemical activation induced mitochondrial swelling. FIG. 3A-3D) mouse liver mitochondria (0.25 mg/mL) were treated with 10 μM Ca^2+ only (traces a); 10 μm Ca^2+ and after 2 min of incubation with: FIG. 3A) 7 μm PhAsO, FIG. 3B) 2 mm Diamide, FIG. 3C), 7 μm Cu(OP)2, FIG. 3D), 2 mm NEM (traces b-d). In traces c and d additions were as in traces b except that mitochondria were also treated with 1.5 μmCsA (traces c) or TR001 (traces d). Traces are representative of n=4 independent preparations.
# Based on the SAR studies and mouse plasma stability data, we decided to move forward with TR001 for more extensive biological characterization. As noted above, mtPTP is triggered by elevated levels of matrix Ca^2+ and potentiated by oxidative stress, leading to mitochondrial swelling. We therefore next tested the ability of TR001 to protect from oxidizing agent-triggered mtPTP opening. For this purpose, we used known chemical activators of the mtPTP that react with two distinct classes of redox sensitive thiols (—SH) and increase the propensity of mtPTP opening. […]
compound,measurement,setting,value
"Cc1ccc(Cl)cc1NC(=O)c1cn(-c2ccc(F)c(O)c2)nn1 [TR001, N-(5-chloro-2-methylphenyl)-1-(4-fluoro-3-hydroxyphenyl)-1H-1,2,3-triazole-4-carboxamide]",CRC effect in combination with CsA,mtPTP [1]; TR001 in combination with 2 μm CsA,additive with CsA
same,CRC/CRC0 at 1.25 μM,"mtPTP [1]; compound treated CRC to DMSO treated CRC0 ratio, 1.25 μM, average ± SEM, n = 3-25",6.8 ± 0.4
same,maximal efficacy as defined by CRC/CRC0 ratio,mtPTP [1]; mouse liver mitochondria,~10
same,effect on oxidizing agent-triggered mtPTP opening,mtPTP [2],delayed mtPTP opening
